Test results as given in patent publication US20210221848A1, “POLYMYXIN DERIVATIVES AND THEIR USE IN COMBINATION THERAPY TOGETHER WITH DIFFERENT ANTIBIOTICS” (priority 2014, published 2021).
In brackets after ≈: the same amount, converted by molar mass. Like-named read-outs stand apart in the source and are kept apart here. Bridge positions count the residues as written; N and C are the ends. Square brackets hold non-standard residues; d marks the D form. Peptide text beside a SMILES is read from it. * marks the point of attachment. ξ: configuration not given here. Thr(3ξ) = CC(O)[C@H](N)C(=O)O; X9 = CC(C)[C@H](N)CCC(=O)*; Octanoyl = CCCCCCCC(=O)*; Dab = NCC[C@H](N)C(=O)O; X15 = O=C(C1CCNC1)*; GABA = NCCCC(=O)O; βAla = NCCC(=O)O

Experiments:
[1] = test system: K. pneumoniae
[2] = test system: A. baumannii
[3] = test system: P. aeruginosa
[4] = test system: E. coli
[5] = absence of a second agent, Table 6B

Row | Compound | MIC, K. pneumoniae ATCC 4352 [1, 5] [micrograms/mL] | MIC, K. pneumoniae ATCC BAA-2146 [1, 5] [micrograms/mL] | MIC, A. baumannii ATCC BAA-747 [2, 5] [micrograms/mL] | MIC, A. baumannii NCTC 13424 [2, 5] [micrograms/mL] | MIC, P. aeruginosa ATCC 27853 [3, 5] [micrograms/mL] | MIC, P. aeruginosa CCUG 59347 [3, 5] [micrograms/mL] | MIC, E. coli ATCC 25922 [4, 5] [micrograms/mL] | MIC, E. coli NCTC 13441 [4, 5] [micrograms/mL] | MIC [2] [µg/mL] | MIC [4] [µg/mL] | other results
1 | 1,2,3,4- tetrahydroisoquinoline- 4-carbonyl polymyxin B nonapeptide [Example D14] | >8 | >8 | >8 | >8 | 1 | 4 | >8 | >8 | – | – | –
2 | 1-(2- trifluoromethylben- zyl)piperazine- 2-carbonyl Polymyxin B nonapeptide [Example D55] | – | – | – | – | – | – | – | – | – | – | MIC, K. pneumoniae ATCC 4352 ([1]; sole activity, Table 6C): 0.25 micrograms/mL; MIC, K. pneumoniae ATCC BAA-2146 ([1]; sole activity, Table 6C): 0.5 micrograms/mL; MIC, A. baumannii ATCC BAA-747 ([2]; sole activity, Table 6C): 0.25 micrograms/mL; MIC, A. baumannii NCTC 13424 ([2]; sole activity, Table 6C): 0.5 micrograms/mL; MIC, P. aeruginosa ATCC 27853 ([3]; sole activity, Table 6C): 0.5 micrograms/mL; MIC, P. aeruginosa CCUG 59347 ([3]; sole activity, Table 6C): 1 micrograms/mL; MIC, E. coli ATCC 25922 ([4]; sole activity, Table 6C): 0.25 micrograms/mL; MIC, E. coli NCTC 13441 ([4]; sole activity, Table 6C): 0.25 micrograms/mL
3 | 2-(2-aminoethyl)-4- methyl pentanoyl polymyxin B nonapeptide [Example D45] | 0.5 | 2 | 8 | 4 | 1 | 4 | 0.5 | 2 | – | – | –
4 | 2-(2-aminoethyl)-4- methyl pentanoyl polymyxin B nonapeptide [Example D46] | 0.5 | 1 | 1 | 2 | 0.5 | 1 | 1 | 1 | – | – | –
5 | 2-aminomethyl-3- naphthalen-2-yl- propanoyl polymyxin B nonapeptide [Example D40] | 2 | 4 | >8 | 8 | 0.5 | 1 | 2 | 2 | – | – | –
6 | 2-aminomethyl-3- naphthalen-2-yl- propanoyl polymyxin B nonapeptide [Example D41] | 2 | – | 2 | 1 | 0.5 | 1 | 1 | 1 | – | – | –
7 | CCCCCCCC(=O)N[C@@H](CCN)C(=O)N[C@H](C(=O)N[C@@H](CCN)C(=O)N[C@H]1CCNC(=O)[C@H]([C@@H](C)O)NC(=O)[C@H](CCN)NC(=O)[C@H](CCN)NC(=O)[C@H](CC(C)C)NC(=O)[C@@H](Cc2ccccc2)NC(=O)[C@H](CCN)NC1=O)C(C)O (some centres unmarked) [CC4, Octanoyl polymyxin B decapeptide, reference compound] (Octanoyl-[Dab][Thr(3ξ)][Dab][Dab][Dab][dF]L[Dab][Dab]T; lactam 4-C) | – | – | – | – | – | – | – | – | 1 (≈ 0.841 µM) | – | –
8 | CCCCCCCC(=O)NCC(=O)N[C@H](C(=O)N[C@@H](CCN)C(=O)N[C@H]1CCNC(=O)[C@H]([C@@H](C)O)NC(=O)[C@H](CCN)NC(=O)[C@H](CCN)NC(=O)[C@H](CC(C)C)NC(=O)[C@@H](Cc2ccccc2)NC(=O)[C@H](CCN)NC1=O)C(C)O (some centres unmarked) [CC5, Octanoyl-Gly- Polymyxin B nonapeptide, reference compound] (Octanoyl-G[Thr(3ξ)][Dab][Dab][Dab][dF]L[Dab][Dab]T; lactam 4-C) | – | – | – | – | – | – | – | – | >8 | 8 (≈ 6.98 µM) | MIC [1]: 8 µg/mL (≈ 6.98 µM)
9 | CCCCCCCC(=O)N[C@H](C(=O)N[C@@H](CCN)C(=O)N[C@H]1CCNC(=O)[C@H]([C@@H](C)O)NC(=O)[C@H](CCN)NC(=O)[C@H](CCN)NC(=O)[C@H](CC(C)C)NC(=O)[C@@H](Cc2ccccc2)NC(=O)[C@H](CCN)NC1=O)[C@@H](C)O [CC6, Octanoyl polymyxin B nonapeptide, reference compound] (Octanoyl-T[Dab][Dab][Dab][dF]L[Dab][Dab]T; lactam 3-C) | – | – | – | – | – | – | – | – | 4 (≈ 3.67 µM) | 0.5 (≈ 0.459 µM) | –
10 | CC(C)C[C@@H]1NC(=O)[C@@H](Cc2ccccc2)NC(=O)[C@H](CCN)NC(=O)[C@@H](NC(=O)[C@H](CCN)NC(=O)[C@@H](NC(=O)CCCN)[C@@H](C)O)CCNC(=O)[C@H]([C@@H](C)O)NC(=O)[C@H](CCN)NC(=O)[C@H](CCN)NC1=O [Example B5, reference compound] (H-[GABA]T[Dab][Dab][Dab][dF]L[Dab][Dab]T; lactam 4-C) | – | – | – | – | – | – | – | – | 4 (≈ 3.82 µM) | – | –
11 | CC(C)C[C@@H]1NC(=O)[C@@H](Cc2ccccc2)NC(=O)[C@H](CCN)NC(=O)[C@@H](NC(=O)[C@H](CCN)NC(=O)[C@@H](NC(=O)CC[C@@H](N)C(C)C)[C@@H](C)O)CCNC(=O)[C@H]([C@@H](C)O)NC(=O)[C@H](CCN)NC(=O)[C@H](CCN)NC1=O [Example B6, reference compound] (X9-T[Dab][Dab][Dab][dF]L[Dab][Dab]T; lactam 3-C) | – | – | – | – | – | – | – | – | >8 | 8 (≈ 7.34 µM) | MIC [3]: 4 µg/mL (≈ 3.67 µM)
12 | CC(C)C[C@@H]1NC(=O)[C@@H](Cc2ccccc2)NC(=O)[C@H](CCN)NC(=O)[C@@H](NC(=O)[C@H](CCN)NC(=O)[C@@H](NC(=O)CCN)[C@@H](C)O)CCNC(=O)[C@H]([C@@H](C)O)NC(=O)[C@H](CCN)NC(=O)[C@H](CCN)NC1=O [Example B7, reference compound] (H-[βAla]T[Dab][Dab][Dab][dF]L[Dab][Dab]T; lactam 4-C) | – | – | – | – | – | – | – | – | >8 | – | –
13 | CC(C)C[C@@H]1NC(=O)[C@@H](Cc2ccccc2)NC(=O)[C@H](CCN)NC(=O)[C@@H](NC(=O)[C@H](CCN)NC(=O)[C@@H](NC(=O)C2CCNC2)[C@@H](C)O)CCNC(=O)[C@H]([C@@H](C)O)NC(=O)[C@H](CCN)NC(=O)[C@H](CCN)NC1=O (some centres unmarked) [Example B8, reference compound] (X15-T[Dab][Dab][Dab][dF]L[Dab][Dab]T; lactam 3-C) | – | – | – | – | – | – | – | – | – | 4 (≈ 3.77 µM) | –
